This is an account of results in publication PMC3740496, “Synthesis and biological activities of the respiratory chain inhibitor aurachin D and new ring versus chain analogues” (Beilstein Journal of Organic Chemistry, 2013).

For orientation: MIC50 means the lowest concentration that inhibits either 50% of growth or 50% of the strains tested, depending on the study.

≈ marks a conversion by molar mass, not a printed value.

In one test the test system is Plasmodium falciparum. Details: method as in PMID 18922036. The settings on record: cited from earlier work.
In test [1] the test system is Plasmodium falciparum FcB1 (chloroquine-resistant). In words: In vitro antiplasmodial assay ([3H]-hypoxanthine incorporation). It counts as cell-based. The settings on record: Plasmodium falciparum, FCB1; triplicate (except compound 24), mean ±SD; read-out: IC50 P. falciparum FcB1. On the procedure:
In vitro antiplasmodial assays: The chloroquine-resistant strain FcB1/Colombia of Plasmodium falciparum was maintained in vitro on human erythrocytes in RPMI 1640 medium supplemented by 8% (v/v) heat-inactivated human serum, at 37 °C, under an atmosphere of 3% CO2, 6% O2, and 91% N2. In vitro drug susceptibility assays was measured by [3H]-hypoxanthine incorporation as described. Drugs were prepared in DMSO at a 10 mg/mL concentration. Compounds were serially diluted two-fold with 100 µL culture medium in 96-well plates. Asynchronous parasite cultures (100 µL, 1% parasitaemia and 1% final hematocrite) were then added to each well and incubated for 24 h at 37 °C prior to the addition of 0.5 µCi of [3H]- hypoxanthine (GE Healthcare, France, 1 to 5 Ci·mmol/mL) per well. After a further incubation of 24 h, plates were frozen and thawed. Cell lysates were then collected onto glass-fiber filters and counted in a liquid scintillation spectrometer. The growth inhibition for each drug concentration was determined by comparison of the radioactivity incorporated in the treated culture with that in the control culture maintained on the same plate. The concentration causing 50% growth inhibition (IC50) was obtained from the drug concentration–response curve and the results were expressed as the mean values ± standard deviations determined from several […]
independent experiments. Chloroquine diphosphate (Sigma–Aldrich) was used as antimalarial drug control. […]

The subject of test [2] is K562 myelogenous leukemia cells. Briefly: Cytotoxicity, growth inhibition (MTT). It counts as cell-based. Conditions: Homo sapiens, K562, 120 h; 5 days treatment; triplicate, mean ±SD; read-out: IC50: half inhibitory concentration, K562. On the procedure: (§1) The cytotoxic activity of aurachin D (4) and analogues 9–11 and 17–19 was evaluated in growth inhibition experiments on mammalian cell lines (Table 2). After 5 days treatment, half inhibitory concentrations (IC50) were determined for human HCT-116 colon carcinoma and human K562 myelogenous leukemia cells. […]
(§2) was further incubated for 1.5 h. The medium was then discarded and 100 µL 2-propanol/10 N HCl (250:1) was added in order to dissolve formazan granules. The absorbance at 570 nm was measured using a microplate reader (EL808, Bio-Tek Instruments Inc.) and cell viability was expressed as a percentage relative to the respective solvent control. […]

For test [3], the system named is HCT-116 human colon carcinoma cells. Briefly: Cytotoxicity, growth inhibition (MTT). The format is cell-based. The settings on record: Homo sapiens, HCT-116, 120 h, read-out: IC50: half inhibitory concentration, HCT-116. On the procedure:
as §1, §2

The test system of test [4] is Trypanosoma brucei gambiense strain Feo bloodstream forms. In words: Antitrypanosomal assay (resazurin). It counts as cell-based. Conditions: Trypanosoma brucei, GAMBIENSE; 72 h incubation; read-out: IC50 T. brucei gambiense. On the procedure:
page 10: independent experiments. Chloroquine diphosphate (Sigma–Aldrich) was used as antimalarial drug control. Antitrypanosomal activities: Bloodstream forms of Trypanosoma brucei gambiense strain Feo were cultured in HMI9 medium supplemented with 10% FCS at 37 °C under an atmosphere of 5% CO2. Antitrypanosomal assays were performed as previously described. In all experiments, log-phage cell cultures were harvested by centrifugation at 3,000g and immediately used. Drug assays were based on the conversion of a redox-sensitive dye (resazurin) to a fluorescent product by viable cells. Drug stock solutions were prepared in pure DMSO. […] After a 72 h incubation, resazurin solution was added in each well at the final concentration of 45 µM. Fluorescence was measured at 530 nm excitation and 590 nm emission wavelengths after a further 4 h incubation. Each inhibitor concentration was tested in triplicate. The percentage of inhibition of parasite growth rate was calculated by comparing the fluorescence of parasites maintained in the presence of drug to that in the absence of drug. DMSO was used as a control. IC50s were determined from the dose–response curves with drug concentrations ranging from 100 µM to 50 nM. Pentamidine was used as antitrypanosomal drug control. MIC determination: Indicator strains were obtained from the German Collection of Microorganisms and Cell Cultures (Deutsche Sammlung für Mikroorganismen und Zellkulturen, DSMZ) or were part of our internal strain collection. All microorganisms were handled under standard conditions recommended by the depositor. Overnight S10
On the technique in general: Alamar Blue is a resazurin reagent that responds to reducing activity.

The next test concerns Escherichia coli (TolC). Briefly: MIC determination. The format is cell-based. Conditions: read-out: MIC50 Escherichia coli (TolC). Here is the method:
(§3) MIC determination: Indicator strains were obtained from the German Collection of Microorganisms and Cell Cultures (Deutsche Sammlung für Mikroorganismen und Zellkulturen, DSMZ) or were part of our internal strain collection. All microorganisms were handled under standard conditions recommended by the depositor. Overnight […]
(§4) cultures of bacteria were prepared in EBS medium (0.5% casein peptone, 0.5% proteose peptone, 0.1% meat peptone, 0.1% yeast extract; pH 7.0). Yeasts and molds were grown in Myc medium (1% phytone peptone, 1% glucose, 50 mM
(§5) HEPES, pH 7.0). The overnight cultures of microorganisms were diluted to OD600 0.01 (bacteria) or 0.05 (yeasts/molds) in the respective growth medium. Serial dilutions of compounds were prepared as duplicates in sterile 96-well plates. The cell suspension was added and microorganisms were grown overnight on a microplate shaker (900 rpm, 30 °C or 37 °C). Growth inhibition was assessed by measuring the OD600 on a plate reader (POLARstar, BMG Labtech). MIC50 values were determined as averages relative to respective control samples by sigmoidal curve fitting. […]

In test [5] the test system is Staphylococcus aureus DSM11822 (MRSA). In words: MIC determination. Conditions: duplicate, mean ±SD. The format is cell-based. Here is the method:
as §3, §4, §5

In test [6] the test system is Escherichia coli DH5α (wt). In words: MIC determination. It counts as cell-based. The settings on record: duplicate, mean ±SD. On the procedure: as §3, §4, §5
The subject of the next test is Bacillus subtilis DSM10. In words: MIC determination. It counts as cell-based. The settings on record: Bacillus subtilis, DSM10; duplicate, mean ±SD. On the procedure:
as §3, §4, §5

Test [7] has as its system Klebsiella pneumoniae DSM30104. Briefly: MIC determination. The settings on record: duplicate, mean ±SD. It counts as cell-based. Here is the method: as §3, §4, §5
A further test concerns Micrococcus luteus. Briefly: MIC determination. The format is cell-based. Conditions: duplicate, mean ±SD. On the procedure: as §3, §4, §5
For test [8], the system named is Staphylococcus aureus Newman (MSSA). Briefly: MIC determination. It counts as cell-based. Conditions: duplicate, mean ±SD. Here is the method: as §3, §4, §5
Test [9] has as its system Vero cells (nontumor cells). In words: Cytotoxicity on Vero cells (MTT). The format is cell-based. The settings on record: 48 h incubation. On the procedure:
was further incubated for 1.5 h. The medium was then discarded and 100 µL 2-propanol/10 N HCl (250:1) was added in order to dissolve formazan granules. The absorbance at 570 nm was measured using a microplate reader (EL808, Bio-Tek Instruments Inc.) and cell viability was expressed as a percentage relative to the respective solvent control. VERO cells: VERO cells were seeded into 96-well microplates at 10^5 cells per mL in RPMI supplemented with 10% foetal calf serum.
After 24 h, the cells were washed and two microliters of two-fold serial dilutions of each compound (10 mg/mL) was added to 100 μL of medium. Cells were then incubated for 48 h at 37 ° C under a 5% CO2 atmosphere. At the end of incubation, 20 µL of MTT solution (5 mg/mL) was added to each well and further incubated for 4 h at 37 °C to allow the formation of formazan. The crystals of formazan were then dissolved with 100 µL of a freshly prepared solution of sodium dodecyl sulfate (SDS) 10% (15 mL) and HCl 1 N (150 µL). The optical density of each well was measured at 595 nm using a multiwell plate reader. The 50% inhibition concentration was then determined by curve fitting.
MMP assay: Human U-2 OS osteosarcoma cells (HTB-96) were obtained from the American Type Culture Collection (ATCC) and were cultured under the conditions recommended by the depositor. Cells from actively growing cultures were harvested and seeded at 8 × 10^3 cells per well in 96-well imaging plates (BD Falcon). After 1 d cells reached approximately 60% confluency and were treated with aurachin analogues at the assigned concentrations for 16 h. In addition, cells were stimulated with 1 µM FCCP [carbonyl cyanide 4-(trifluoromethoxy)phenylhydrazone] as a positive control 1 h prior to the measurement. For labeling, cells were washed twice with assay buffer ([…], 5.4 mM KCl, 2 mM MgCl2, 10 mM glucose, 2 mM CaCl2, 10 mM HEPES; pH 7.35) and 100 µL of a staining solution (50 nM TMRM,

For a further test, the system named is Plasmodium. Details: method as in PMID 15215101. Conditions: read-out: antiplasmodial IC50; cited from earlier work.

Turning to `CC(C)=CCC/C(C)=C/CC/C(C)=C/Cc1c(O)c(C)[n+]([O-])c2ccccc12` [aurachin B], in the test on Plasmodium falciparum, the “IC50 Plasmodium falciparum” value was “around 20 ng/mL”.
As for `CC(C)=CCC/C(C)=C/CC/C(C)=C/Cc1c(C)n(O)c2ccccc2c1=O` [aurachin C], in the test on Plasmodium falciparum, the “IC50 Plasmodium falciparum” value is “around 20 ng/mL” and the “fold higher antiplasmodial activity compared to aurachin D” value is “approximately 200 fold”.
`CC(C)=CCC/C(C)=C/CC/C(C)=C/Cc1c(C)n2c(=O)[nH]c3cccc(c1=O)c32` [aurachin E]: in the test with Plasmodium falciparum, the “IC50 Plasmodium falciparum” value is given as “around 20 ng/mL”.
`CC(C)=CCc1c(C)[nH]c2ccccc2c1=O` [compound 10]: the IC50 in test [1] is 0.55 ± 0.16 mg/L (≈ 2.42 µM); in test [2], approximately 10 mg/L (≈ 44 µM); in [3] it was more than 10 mg/L; in test [4], 5.8 mg/L (≈ 25.5 µM). Further, the MIC50 is 6.55 ± 1.36 mg/L (≈ 28.8 µM) with Escherichia coli (TolC); 11.3 ± 1.44 mg/L (≈ 49.7 µM) in [5]; more than 64 mg/L in test [6]; 0.22 ± 0.06 mg/L (≈ 0.968 µM) in the test on Bacillus subtilis DSM10; more than 64 mg/L in test [7]; 14.3 ± 1.29 mg/L (≈ 63 µM) in the test on Micrococcus luteus. Besides, the MIC50 in test [8] was 9.66 ± 2.39 mg/L (≈ 42.5 µM).
In the case of `Cc1[nH]c2ccccc2c(=O)c1C` [compound 11], the IC50 is 2.3 ± 1.4 mg/L (≈ 13.3 µM) in test [1], more than 10 mg/L in test [2], more than 10 mg/L in test [3] and more than 10 mg/L in test [4]. Moreover, the MIC50 was more than 64 mg/L with Escherichia coli (TolC); more than 64 mg/L in test [5]; more than 64 mg/L in test [6]; 49 ± 6.26 mg/L (≈ 283 µM) against Bacillus subtilis DSM10; more than 64 mg/L in [7]; more than 64 mg/L in the test on Micrococcus luteus. This compound had an MIC50 in [8] of more than 64 mg/L.
In turn, `Cc1c2c(c3ccccc3[n+]1[O-])O[C@H]([C@](C)(O)CCC1OC1(C)C)C2` (stereo partly shown) [compound 22] displayed an IC50 in test [9] of more than 50 mg/L.
As to `Cc1cc(=O)c2ccccc2[nH]1` [compound 23, 2-methyl-4(1H)-quinolone, reference compound], the IC50 in [1] was 7.7 ± 2.5 mg/L (≈ 48.4 µM); in test [4] it was more than 10 mg/L.
For the compound `Cc1[nH]c2ccccc2c(=O)c1Br` [compound 24, 3-bromo-2-methyl-4(1H)-quinolone], the IC50 in [1] stood at 1.1 mg/L (≈ 4.62 µM); in [4] it was 1.7 mg/L (≈ 7.14 µM).
For the compound `Cc1c(C)n(O)c2ccccc2c1=O` [compound 25, N-hydroxy-2,3-dimethyl-4(1H)-quinolone], the results for the IC50 in test [1] and in test [4] were 2.7 ± 1.3 mg/L (≈ 14.3 µM) and more than 10 mg/L, respectively.
For the compound `CC(C)=CCC/C(C)=C/CC/C(C)=C/CO` [farnesol], the IC50 in the test with Plasmodium is 64 µM.
